Experiments:
[1] = target: T1, Metabotropic glutamate receptor 5 (Homo sapiens, UniProt P41594); test: Non-competitive antagonist activity at mGluR5 at 30 uM relative to glutamate; assay type: functional; set-up: scale not given: the % may be the effect or the level left
Target sequence in this assay (P41594 21-1212 limits assumed): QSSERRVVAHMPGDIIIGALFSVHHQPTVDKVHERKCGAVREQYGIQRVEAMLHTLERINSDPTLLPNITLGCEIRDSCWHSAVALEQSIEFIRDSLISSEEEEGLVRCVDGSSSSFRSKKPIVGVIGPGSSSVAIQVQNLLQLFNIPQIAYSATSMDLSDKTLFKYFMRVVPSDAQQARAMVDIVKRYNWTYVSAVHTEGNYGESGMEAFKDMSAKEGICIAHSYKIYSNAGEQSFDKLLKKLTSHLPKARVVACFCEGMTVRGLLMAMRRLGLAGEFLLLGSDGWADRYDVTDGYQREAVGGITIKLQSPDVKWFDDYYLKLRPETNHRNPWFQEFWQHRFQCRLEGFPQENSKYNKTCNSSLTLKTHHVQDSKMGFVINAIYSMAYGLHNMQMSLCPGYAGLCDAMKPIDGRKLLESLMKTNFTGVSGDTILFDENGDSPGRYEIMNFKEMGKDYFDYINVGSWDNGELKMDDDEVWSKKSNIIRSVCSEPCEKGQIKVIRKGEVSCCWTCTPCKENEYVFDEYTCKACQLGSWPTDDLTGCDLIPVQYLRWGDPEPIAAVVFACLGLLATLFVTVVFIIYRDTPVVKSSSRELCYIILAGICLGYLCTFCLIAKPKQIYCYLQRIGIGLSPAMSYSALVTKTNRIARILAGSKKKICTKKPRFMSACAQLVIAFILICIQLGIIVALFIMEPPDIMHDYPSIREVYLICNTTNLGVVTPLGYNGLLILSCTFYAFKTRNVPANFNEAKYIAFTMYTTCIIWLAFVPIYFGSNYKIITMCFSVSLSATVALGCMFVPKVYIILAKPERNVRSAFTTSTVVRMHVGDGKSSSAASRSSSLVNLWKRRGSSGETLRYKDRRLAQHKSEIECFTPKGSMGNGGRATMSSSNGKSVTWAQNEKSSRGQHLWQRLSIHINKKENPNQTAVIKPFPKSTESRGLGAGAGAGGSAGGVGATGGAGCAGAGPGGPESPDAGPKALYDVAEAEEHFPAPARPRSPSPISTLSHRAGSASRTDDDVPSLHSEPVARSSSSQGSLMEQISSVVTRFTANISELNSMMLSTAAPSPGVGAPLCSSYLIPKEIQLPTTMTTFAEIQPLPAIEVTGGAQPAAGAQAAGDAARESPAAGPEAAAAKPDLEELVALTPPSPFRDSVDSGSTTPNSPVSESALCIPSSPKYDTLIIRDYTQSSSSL

[2] = target: T1, Metabotropic glutamate receptor 5; test: Non-competitive antagonist activity at mGluR5; assay type: functional
Target sequence in this assay (P41594 whole entry): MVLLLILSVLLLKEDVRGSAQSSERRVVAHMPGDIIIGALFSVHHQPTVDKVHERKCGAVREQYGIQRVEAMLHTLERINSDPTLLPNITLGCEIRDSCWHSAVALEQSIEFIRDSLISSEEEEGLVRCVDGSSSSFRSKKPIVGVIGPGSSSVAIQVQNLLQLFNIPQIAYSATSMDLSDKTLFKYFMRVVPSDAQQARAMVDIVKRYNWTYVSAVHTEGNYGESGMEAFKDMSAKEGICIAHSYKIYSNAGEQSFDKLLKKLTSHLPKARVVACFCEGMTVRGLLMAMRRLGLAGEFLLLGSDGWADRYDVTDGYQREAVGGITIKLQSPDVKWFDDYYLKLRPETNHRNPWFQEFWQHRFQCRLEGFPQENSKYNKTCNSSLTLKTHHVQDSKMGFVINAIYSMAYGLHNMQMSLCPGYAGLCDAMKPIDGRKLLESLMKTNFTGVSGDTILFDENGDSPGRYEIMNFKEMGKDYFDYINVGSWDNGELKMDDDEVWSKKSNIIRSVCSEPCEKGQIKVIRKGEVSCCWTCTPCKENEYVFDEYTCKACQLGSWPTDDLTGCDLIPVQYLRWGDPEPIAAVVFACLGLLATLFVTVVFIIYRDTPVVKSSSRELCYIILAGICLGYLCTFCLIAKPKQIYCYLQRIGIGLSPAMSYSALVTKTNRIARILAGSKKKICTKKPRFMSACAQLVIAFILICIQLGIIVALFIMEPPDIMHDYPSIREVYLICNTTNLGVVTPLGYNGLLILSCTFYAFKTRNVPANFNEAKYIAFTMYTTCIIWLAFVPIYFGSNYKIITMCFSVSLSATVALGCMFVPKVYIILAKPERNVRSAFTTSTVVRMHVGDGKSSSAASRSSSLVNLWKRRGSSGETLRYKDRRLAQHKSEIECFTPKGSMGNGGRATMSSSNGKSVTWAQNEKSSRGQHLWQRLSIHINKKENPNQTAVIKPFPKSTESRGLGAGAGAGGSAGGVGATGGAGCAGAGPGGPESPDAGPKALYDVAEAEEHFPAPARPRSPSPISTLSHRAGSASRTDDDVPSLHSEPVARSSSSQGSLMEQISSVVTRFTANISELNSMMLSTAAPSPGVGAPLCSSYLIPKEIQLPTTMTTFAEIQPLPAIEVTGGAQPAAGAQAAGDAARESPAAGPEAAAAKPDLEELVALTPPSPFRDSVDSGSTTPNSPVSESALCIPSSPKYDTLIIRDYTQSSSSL

[3] = target: Metabotropic glutamate receptor 4 (Homo sapiens, UniProt Q14833); test: Inhibition of mGluR4
[4] = target: Metabotropic glutamate receptor 2 (Homo sapiens, UniProt Q14416); test: Inhibition of mGluR2
[5] = target: Metabotropic glutamate receptor 3 (Homo sapiens, UniProt Q14832); test: Inhibition of mGluR3
[6] = target: Metabotropic glutamate receptor 7 (Homo sapiens, UniProt Q14831); test: Inhibition of mGluR7
[7] = target: Metabotropic glutamate receptor 8 (Homo sapiens, UniProt O00222); test: Inhibition of mGluR8
[8] = target: Metabotropic glutamate receptor 1 (Homo sapiens, UniProt Q13255); test: Inhibition of mGluR1
[9] = target: T1, Metabotropic glutamate receptor 5; test: Positive allosteric modulation of mGluR5 at 30 uM relative to glutamate
Target sequence in this assay (P41594 21-1212 limits assumed): as the sequence (P41594 21-1212 limits assumed) above

[10] = target: T1, Metabotropic glutamate receptor 5; test: Positive allosteric modulation of mGluR5
Target sequence in this assay (P41594 whole entry): as the sequence (P41594 whole entry) above

Chain of Metabotropic glutamate receptor 7 (Q14831 whole entry): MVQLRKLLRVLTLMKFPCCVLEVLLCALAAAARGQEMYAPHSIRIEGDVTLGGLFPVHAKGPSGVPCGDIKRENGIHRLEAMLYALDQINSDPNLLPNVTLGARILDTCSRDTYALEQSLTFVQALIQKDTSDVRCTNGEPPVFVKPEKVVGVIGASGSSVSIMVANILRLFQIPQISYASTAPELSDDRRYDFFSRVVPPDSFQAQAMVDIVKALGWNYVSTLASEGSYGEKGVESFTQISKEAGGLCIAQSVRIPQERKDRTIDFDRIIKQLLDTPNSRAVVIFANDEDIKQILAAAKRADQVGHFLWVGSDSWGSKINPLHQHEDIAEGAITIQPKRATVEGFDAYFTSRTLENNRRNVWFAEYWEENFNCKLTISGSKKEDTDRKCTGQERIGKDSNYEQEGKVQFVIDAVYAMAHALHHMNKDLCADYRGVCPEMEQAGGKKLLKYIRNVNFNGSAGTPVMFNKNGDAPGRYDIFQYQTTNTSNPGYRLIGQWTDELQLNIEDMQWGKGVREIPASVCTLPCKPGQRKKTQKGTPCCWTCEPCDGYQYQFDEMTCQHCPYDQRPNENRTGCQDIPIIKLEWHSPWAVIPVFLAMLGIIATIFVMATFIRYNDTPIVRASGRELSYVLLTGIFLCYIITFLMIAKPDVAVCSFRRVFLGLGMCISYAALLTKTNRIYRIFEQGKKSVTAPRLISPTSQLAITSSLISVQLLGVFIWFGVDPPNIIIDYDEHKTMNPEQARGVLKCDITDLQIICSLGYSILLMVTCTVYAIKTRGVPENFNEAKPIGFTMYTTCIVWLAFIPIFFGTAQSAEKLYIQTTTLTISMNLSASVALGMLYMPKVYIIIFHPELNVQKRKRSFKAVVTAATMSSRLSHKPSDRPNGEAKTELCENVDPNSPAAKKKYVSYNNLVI
Chain of Metabotropic glutamate receptor 8 (O00222 whole entry): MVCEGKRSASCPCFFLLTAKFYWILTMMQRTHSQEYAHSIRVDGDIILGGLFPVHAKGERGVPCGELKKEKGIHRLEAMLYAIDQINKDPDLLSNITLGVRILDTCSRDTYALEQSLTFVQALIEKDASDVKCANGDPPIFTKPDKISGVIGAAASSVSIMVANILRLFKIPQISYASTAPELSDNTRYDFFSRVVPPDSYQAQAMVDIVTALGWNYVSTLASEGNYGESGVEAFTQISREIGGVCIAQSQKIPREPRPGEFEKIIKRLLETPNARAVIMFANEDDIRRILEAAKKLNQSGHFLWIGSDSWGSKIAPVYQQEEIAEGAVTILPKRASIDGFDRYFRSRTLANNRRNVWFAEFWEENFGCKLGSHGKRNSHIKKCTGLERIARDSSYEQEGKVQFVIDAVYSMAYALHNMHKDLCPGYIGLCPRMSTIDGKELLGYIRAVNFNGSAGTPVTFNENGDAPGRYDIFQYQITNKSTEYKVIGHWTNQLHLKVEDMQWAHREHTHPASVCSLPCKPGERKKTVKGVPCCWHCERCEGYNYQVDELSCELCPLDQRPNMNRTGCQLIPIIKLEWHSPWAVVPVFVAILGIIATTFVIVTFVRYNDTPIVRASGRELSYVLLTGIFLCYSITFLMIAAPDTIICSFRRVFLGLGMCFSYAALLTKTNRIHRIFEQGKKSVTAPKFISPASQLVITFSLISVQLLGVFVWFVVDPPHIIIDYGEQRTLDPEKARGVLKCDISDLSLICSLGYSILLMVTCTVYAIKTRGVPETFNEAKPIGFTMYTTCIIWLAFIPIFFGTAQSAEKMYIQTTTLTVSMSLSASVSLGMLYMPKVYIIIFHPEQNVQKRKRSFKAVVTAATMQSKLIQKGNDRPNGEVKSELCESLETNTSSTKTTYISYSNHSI

Row | SMILES | Activity [1] [%] | IC50 [2] [µM] | also measured
1 | Cc1cc(C(F)(F)F)c2c(N)c(C(=O)c3ccc(F)cc3)oc2n1 | 1.58 | 0.84 | –
2 | Cc1cc(C)c2c(N)c(C(=O)c3ccc(F)cc3F)oc2n1 | 19.4 | 9.3 | –
3 | O=C(N1CCN(c2nccs2)CC1)C12CC3CC(CC(C3)C1)C2 | 1.16 | – | IC50 [3]: > 30 µM; IC50 [4]: > 30 µM; IC50 [5]: > 30 µM; IC50 [6]: > 30 µM; IC50 [7]: > 30 µM
4 | O=C(c1ccco1)N1CCCC2(CCCCC2)C1 | 2.64 | 1.54 | –
5 | O=C(C1CCC1)N1CCCC2(CCCCC2)C1 | 1.12 | – | IC50 [3]: > 30 µM; IC50 [4]: > 30 µM; IC50 [5]: > 30 µM; IC50 [6]: > 30 µM; IC50 [7]: > 30 µM; IC50 [8]: > 30 µM
6 | Nc1c(C(=O)c2ccc(F)cc2)oc2ncc(Br)cc12 | – | – | Activity [9]: 73.5%; EC50 [10]: 7.6 µM
7 | COCc1c(Cl)c(C)nc2oc(C(=O)c3ccc(F)cc3)c(N)c12 | – | – | Activity [9]: 38.3%; EC50 [10]: 6.5 µM
8 | O=C(C1CCCCC1)N1CCCC2(CCCCC2)C1 | – | > 30 | –
9 | O=C(c1cnc2ccccc2n1)N1CCCC2(CCCCC2)C1 | 2.39 | 5.02 | –
10 | O=C(Cc1cccs1)N1CCCC2(CCCCC2)C1 | 52.1 | > 10 | –
11 | O=C(N1CCN(c2cccnc2)CC1)C12CC3CC(CC(C3)C1)C2 | 30.2 | > 10 | –
12 | O=C(CSc1ccccc1)N1CCCC2(CCCCC2)C1 | 4.23 | – | –
13 | O=C(N1CCN(c2ccccc2Cl)CC1)C12CC3CC(CC(C3)C1)C2 | – | > 30 | –
14 | Cc1cc(=O)[nH]c2oc(C(=O)c3ccc(F)cc3)c(N)c12 | – | – | EC50 [10]: 6.1 µM
15 | Cc1cc(C)c2c(N)c(C(=O)c3ccccc3)oc2n1 | 36 | > 10 | –
16 | O=C(C1CCCC1)N1CCCC2(CCCCC2)C1 | 26.1 | > 10 | –
17 | O=C(c1cccnc1)N1CCCC2(CCCCC2)C1 | – | > 30 | –
18 | O=C(N1CCN(c2ccccn2)CC1)C12CC3CC(CC(C3)C1)C2 | 3.75 | 0.99 | –
19 | N#Cc1ccccc1N1CCN(C(=O)C23CC4CC(CC(C4)C2)C3)CC1 | 3.68 | – | –
20 | O=C(c1cccs1)N1CCCC2(CCCCC2)C1 | 2.69 | 1.18 | –
21 | O=C(C1CC1)N1CCCC2(CCCCC2)C1 | 40.6 | > 10 | –
22 | Cc1cc(O)nc2oc(C(=O)c3ccc(F)cc3)c(N)c12 | – | – | Activity [9]: 32.9%
23 | O=C(N1CCN(c2ccncc2)CC1)C12CC3CC(CC(C3)C1)C2 | – | > 30 | –
24 | Cc1ccc(C(=O)N2CCCC3(CCCCC3)C2)cc1 | 56.2 | > 10 | –
25 | COc1ccccc1N1CCN(C(=O)C23CC4CC(CC(C4)C2)C3)CC1 | 52 | > 10 | –

— ChEMBL document CHEMBL1781871, “Discovery and SAR of novel mGluR5 non-competitive antagonists not based on an MPEP chemotype” (Bioorg Med Chem Lett, 2009)
